From patent US10226476B2, “Method of attenuating reactions to skin irritants” (Dana-Farber Cancer Institute, Inc., priority 2001, dated 2019)
“Also recorded” adds a separate entry of the source.

System: oxazolone-induced contact hypersensitivity in mice
Test: oxazolone-induced contact hypersensitivity (hapten-specific increase in ear thickness at 24 hours)
Format: in vivo, mouse
Settings: for effect on CSH/CHS response to oxazolone, systemic administration: systemic (i.p.) administration
From the text: 8-12 week old female C57B1/6 mice were purchased from Taconic Farms. Inc. (Germantown, N.Y.). The CD1d-null allele (generated in a 129×C57B1/6 founder (25) (26) was backcrossed 7 generations into the C57B1/6 strain. (15) Homozygous CD1d deficient mice were obtained from littermate pairings and used to generate heterozygote CD1d deficient and wild type controls. Breeding pairs of mice deficient for CD1d on the BALB/c background were purchased from Jackson Labs (Bar Harbor, Me.). The C57B1/6 and BALB/c J 281 null mice were established by specific deletion of the J 281 gene segment (27) (28). All mouse experiments were approved and conducted under IACUC guidelines.
Mice at least seven weeks of age were sensitized epicutaneously on day 0 with 70 μl of 4% 4-ethoxymethylene-2-phenyl-2-oxazolin-5-one (oxazolone, Sigma, St. Louis, Mo.) in acetone/olive oil (4/1) and challenged five days later on the right ear with 20 μl of 0.5% oxazolone or carrier only on the left ear. The hapten-specific increase in ear thickness at 24 hours was determined with a micrometer.
Mice received a series of 5 intraperitoneal injections of either 2 μg of αManCer (2 μg i.p. diluted in a solution of phosphate buffered saline and 0.5% Tween-20 every other day, starting 3 days prior to skin sensitization and continuing through to re-challenge.
Significant differences between groups were evaluated with a Mann-Whitney test, or where appropriate, a two tailed Student's t test. Mean differences were considered significant when p<0.05.

Compound	effect on CSH/CHS response to oxazolone, systemic administration (result in words)	inhibition of oxazolone-induced CSH in MHC-unrelated mouse strains (topical 100 mg/ml, SWR, C57B1/10, DBA, BALB/c mice, FIG. 5, result in words)	Half-maximal inhibition of CSH (topical concentration) (topical, applied with 4% oxazolone at sensitization, wild type C57B1/6 mice, FIG. 4A) [mg/mL]	inhibition of contact hypersensitivity, inhibitor present at both phases (topical, during both priming and recall, FIG. 4B, result in words)	inhibition of contact hypersensitivity, inhibitor present in one phase only (topical, only during priming or only during recall, FIG. 4B, result in words)	inhibition of oxazolone-induced contact hypersensitivity, topical at sensitization (topical, with oxazolone on day 0 (100 mg/ml, or increasing doses 0-100 mg/ml), FIG. 3, 4A, result in words)	inhibition of CSH by control substances (specificity) (specificity controls for DPPE-PEG, FIG. 2 and data not shown, result in words)
1,2-Dipalmitoyl-sn-Glycero-3-Phosphoethanolamine-N-[Poly(ethylene glycol) 2000] [DPPE-PEG]	inhibited CHS as effectively as α-ManCer	effective inhibitor in all strains tested	25	maximally inhibited	also inhibited, but to a lesser extent	inhibits oxazolone-induced contact hypersensitivity; also recorded: inhibit oxazolone-induced hypersensitivity in a dose-dependent manner	
CCCCCCCCCCCCCCCC(=O)O [palmitic acid, reference compound]							neither palmitic acid, nor PEG alone were effective inhibitors of CSH
CCCCCCCCCCCCCCCCCCCCCCCCCC(=O)N[C@@H](COC1O[C@H](CO)[C@H](O)[C@H](O)[C@H]1O)[C@H](O)[C@H](O)CCCCCCCCCCCCCC (stereo partly drawn) [α-GalCer, (2S,3S,4R)-1-O-(-D-galactopyranosyl)-2-(N-hexacosanoylamino)-1,3,4-octadecanetriol, reference compound]	did not alter the CSH response						
